Assay results reported in the OligoGym collection.
These antisense oligonucleotides have a phosphorothioate backbone; sugars and methylation of C are not fully specified.

biological target: E2F1; conditions: ASO
Note: test concentration or dose not given here.

Which remaining target (mRNA or protein) (fraction of control) does the source give for CGGCGGGCGGCCGAGCGCGG here?
Its remaining target (mRNA or protein) (fraction of control) is 0.83.

With CTCAGAAGTGACCTCCTGGG as the sequence, how does the remaining target (mRNA or protein) (fraction of control) read?
Its remaining target (mRNA or protein) (fraction of control) is 0.73.

Which remaining target (mRNA or protein) (fraction of control) does the source give for CTCCCTCACTTTCCCAATAA here?
The remaining target (mRNA or protein) (fraction of control) was 0.71.

Which remaining target (mRNA or protein) (fraction of control) does the source give for CTGCAATGCTACGAAGGTCC here?
Its remaining target (mRNA or protein) (fraction of control) is 0.26.

Which remaining target (mRNA or protein) (fraction of control) does the source give for CTTCATTCCCCGGTACATGC here?
The remaining target (mRNA or protein) (fraction of control) was 0.72.

Which remaining target (mRNA or protein) (fraction of control) does the source give for GAACTCCTCAGGGAGGAGGC here?
Its remaining target (mRNA or protein) (fraction of control) is 0.59.

Which remaining target (mRNA or protein) (fraction of control) does the source give for GACCACAGGGTCTGGGCTGG here?
Its remaining target (mRNA or protein) (fraction of control) is 0.62.

With GAGGAGGCCGGAGAAGTCCT as the sequence, how does the remaining target (mRNA or protein) (fraction of control) read?
Its remaining target (mRNA or protein) (fraction of control) is 0.75.

How did the remaining target (mRNA or protein) (fraction of control) turn out when GAGGCCTCGATAAATAAATA was run?
The remaining target (mRNA or protein) (fraction of control) was 0.94.

How did the remaining target (mRNA or protein) (fraction of control) turn out when GAGTCGGCCGCCACCAGCGG was run?
Its remaining target (mRNA or protein) (fraction of control) is 0.27.

With GATTCTGGGAGCAGGCACTG as the sequence, how does the remaining target (mRNA or protein) (fraction of control) read?
Its remaining target (mRNA or protein) (fraction of control) is 0.79.

Which remaining target (mRNA or protein) (fraction of control) does the source give for GCAGGCGCTTCAGACACTGC here?
The remaining target (mRNA or protein) (fraction of control) was 0.3.

Which remaining target (mRNA or protein) (fraction of control) does the source give for GCCACTGGATGTGGTTCTTG here?
Its remaining target (mRNA or protein) (fraction of control) is 0.94.

How did the remaining target (mRNA or protein) (fraction of control) turn out when GCCAGGCGCTGGCTGTCAGT was run?
The remaining target (mRNA or protein) (fraction of control) was 0.69.

For GCCCACTGCTCTCGGCCAGG, which remaining target (mRNA or protein) (fraction of control) is on record?
The remaining target (mRNA or protein) (fraction of control) was 0.4.

With GCCGACGCCCACTGTGGTGT as the sequence, how does the remaining target (mRNA or protein) (fraction of control) read?
Its remaining target (mRNA or protein) (fraction of control) is 0.45.

How did the remaining target (mRNA or protein) (fraction of control) turn out when GCCTTGTGGGACCCCACGAG was run?
Its remaining target (mRNA or protein) (fraction of control) is 0.83.

GCGGCCCGGGTGACAGGCGG was tested. Which remaining target (mRNA or protein) (fraction of control) did it give?
The remaining target (mRNA or protein) (fraction of control) was 0.32.

Which remaining target (mRNA or protein) (fraction of control) does the source give for GCTCCAGGCTGAGTAGAGAC here?
The remaining target (mRNA or protein) (fraction of control) was 0.73.

For GGACTCATGCACACACATGT, which remaining target (mRNA or protein) (fraction of control) is on record?
Its remaining target (mRNA or protein) (fraction of control) is 0.16.

For GGACTTCTTGGCAATGAGCT, which remaining target (mRNA or protein) (fraction of control) is on record?
The remaining target (mRNA or protein) (fraction of control) was 0.65.

For GGAGGACGGCCAGGGACAGG, which remaining target (mRNA or protein) (fraction of control) is on record?
The remaining target (mRNA or protein) (fraction of control) was 0.7.

GGCCATGACGCTCACGGCCC was tested. Which remaining target (mRNA or protein) (fraction of control) did it give?
Its remaining target (mRNA or protein) (fraction of control) is 0.76.

Which remaining target (mRNA or protein) (fraction of control) does the source give for GGCCGAAAGTGCAGTTAGAG here?
The remaining target (mRNA or protein) (fraction of control) was ≥ 1.

With GGCCGCGGCGCACTGGGTGT as the sequence, how does the remaining target (mRNA or protein) (fraction of control) read?
The remaining target (mRNA or protein) (fraction of control) was 0.79.

For GGCTGCCCATCCGGGACAAC, which remaining target (mRNA or protein) (fraction of control) is on record?
Its remaining target (mRNA or protein) (fraction of control) is 0.53.

With GGCTTGCTCAGCCTCCTAGC as the sequence, how does the remaining target (mRNA or protein) (fraction of control) read?
Its remaining target (mRNA or protein) (fraction of control) is 0.17.

How did the remaining target (mRNA or protein) (fraction of control) turn out when GGGAGATGATGGTGGTGGTG was run?
The remaining target (mRNA or protein) (fraction of control) was ≥ 1.

With GGGCCGGTGGGAGCCGGCGG as the sequence, how does the remaining target (mRNA or protein) (fraction of control) read?
Its remaining target (mRNA or protein) (fraction of control) is 0.37.

For GGTATAAATTAAATGTTTCC, which remaining target (mRNA or protein) (fraction of control) is on record?
Its remaining target (mRNA or protein) (fraction of control) is 0.62.

For GGTCCAGCCTCCGCTTCACC, which remaining target (mRNA or protein) (fraction of control) is on record?
The remaining target (mRNA or protein) (fraction of control) was 0.36.

With GGTCCCTCCAAGCCCTGTCA as the sequence, how does the remaining target (mRNA or protein) (fraction of control) read?
Its remaining target (mRNA or protein) (fraction of control) is 0.2.

For GGTCCTGGGTCAACCCCTCA, which remaining target (mRNA or protein) (fraction of control) is on record?
The remaining target (mRNA or protein) (fraction of control) was 0.62.

Which remaining target (mRNA or protein) (fraction of control) does the source give for GTGACACTATGGTGGCAGAG here?
The remaining target (mRNA or protein) (fraction of control) was 0.75.

With GTGGTCAGATTCAGTGAGGT as the sequence, how does the remaining target (mRNA or protein) (fraction of control) read?
Its remaining target (mRNA or protein) (fraction of control) is 0.43.

How did the remaining target (mRNA or protein) (fraction of control) turn out when GTGTGGGTGTAGGCTGCATG was run?
Its remaining target (mRNA or protein) (fraction of control) is 0.76.

For TACTCTGGAAACCCTGGTCC, which remaining target (mRNA or protein) (fraction of control) is on record?
The remaining target (mRNA or protein) (fraction of control) was 0.75.

How did the remaining target (mRNA or protein) (fraction of control) turn out when TAGCCAGACCCCAGAGCTAG was run?
Its remaining target (mRNA or protein) (fraction of control) is 0.46.

With TATTAAAACCAAAGCAGGAG as the sequence, how does the remaining target (mRNA or protein) (fraction of control) read?
Its remaining target (mRNA or protein) (fraction of control) is 0.69.

Which remaining target (mRNA or protein) (fraction of control) does the source give for TCAGCCGAGTGGCTCAGCAG here?
Its remaining target (mRNA or protein) (fraction of control) is 0.91.

How did the remaining target (mRNA or protein) (fraction of control) turn out when TCCTGCAGCTGTCGGAGGTC was run?
Its remaining target (mRNA or protein) (fraction of control) is 0.8.

For TCTGCGAGGAGTCGAGCAGC, which remaining target (mRNA or protein) (fraction of control) is on record?
The remaining target (mRNA or protein) (fraction of control) was 0.79.

Which remaining target (mRNA or protein) (fraction of control) does the source give for TGAAAGTTCTCCGAAGAGTC here?
The remaining target (mRNA or protein) (fraction of control) was 0.56.

With TGCACACACAGAGGTGTATG as the sequence, how does the remaining target (mRNA or protein) (fraction of control) read?
The remaining target (mRNA or protein) (fraction of control) was 0.27.

How did the remaining target (mRNA or protein) (fraction of control) turn out when TGGAGAGGGCCCACCCCACC was run?
The remaining target (mRNA or protein) (fraction of control) was 0.62.

TGGCAGAGTCAGTGGCCCTG was tested. Which remaining target (mRNA or protein) (fraction of control) did it give?
Its remaining target (mRNA or protein) (fraction of control) is 0.94.

How did the remaining target (mRNA or protein) (fraction of control) turn out when TGTTAGGAAGCAAATCAAAG was run?
The remaining target (mRNA or protein) (fraction of control) was 0.74.

How did the remaining target (mRNA or protein) (fraction of control) turn out when TTGCTGATTCCCCAGGCTCA was run?
Its remaining target (mRNA or protein) (fraction of control) is 0.36.

For TTTAACGTCATCAAAATATT, which remaining target (mRNA or protein) (fraction of control) is on record?
Its remaining target (mRNA or protein) (fraction of control) is 0.93.

How did the remaining target (mRNA or protein) (fraction of control) turn out when TTTGATCACCATAACCATCT was run?
The remaining target (mRNA or protein) (fraction of control) was 0.08.
